# Source: US9969698B2, “Quinoxalinyl-piperazinamide methods of use” (REXAHN PHARMACEUTICALS, INC., priority 2015, dated 2018)
# Where two headings read alike, the source gives them in different places.
# Assay: Human pharmacokinetics, dose-ranging study
# Type: in vivo
# Conditions: for AUC(0-t) / Cmax / half-life / Tmax: human, plasma, po, oral capsule, fasted; for Cmax: read-out: Cmax; for half-life: read-out: T1/2 (converted); for Tmax: read-out: Tmax
# Protocol: In a dose-ranging study, the pharmacokinetics (PK), safety and tolerability of RX-5902 at various oral doses were evaluated. Subjects with advanced or metastatic solid tumors were administered capsules containing RX-5902 at daily doses of 25-775 mg once weekly, 250-300 mg three times a week, 150-300 mg five times a week, or 300-350 mg seven times a week of RX-5902 for up to 6 dosing cycles. Each cycle consisting of 1-5 doses of RX-5902 per week for 3 weeks followed by 1 week of rest, or 5-7 doses of RX-5902 per week for 4 weeks without any rest per 4-week cycle. All but one subject had fasted from food for at least 8 hours before administration. One subject received 300 mg RX-5902 in fed state. Plasma concentrations were measured on Days 1 and 15, for 48 hrs, using a validated LC-MS/MS assay, and noncompartmental pharmacokinetic parameters were calculated using Phoenix WinNonlin, Version 6.4.
# Preliminary PK data after a single administration is presented in FIG. 1 (for Subjects #1-11) and Table 3.
# [1] = 25 mg, 25 mg, 1 per week, Day 1
# [2] = 50 mg, 50 mg, 1 per week, Day 1
# [3] = 100 mg, 100 mg, 1 per week, Day 1
# [4] = 150 mg, 150 mg, 1 per week, Day 1
# [5] = 150 mg, 150 mg, 5 per week, Day 1
# [6] = 150 mg, 150 mg, 5 per week, Day 15
# [7] = 200 mg, 200 mg, 5 per week, Day 1
# [8] = 200 mg, 200 mg, 5 per week, Day 15
# [9] = 225 mg, 225 mg, 1 per week, Day 1
# [10] = 250 mg, 250 mg, 3 per week, Day 1
# [11] = 250 mg, 250 mg, 3 per week, Day 15
# [12] = 300 mg, 300 mg, 1 per week, Day 1
structure (smiles),measurement,setting,value
"COc1cc(OC)cc(N2CCN(C(=O)Nc3nc4cc(F)ccc4nc3OC)CC2)c1 [RX-5902, 4-(3,5-dimethoxyphenyl)-N-(7-fluoro-3-methoxyquinoxalin-2-yl)piperazine-1-carboxamide]",exposure in fed state compared to fasted state,"300 mg oral, one fed subject",significantly higher exposure
same,AUC(0-t),"25 mg, 25 mg, 1 per week, Day 1, read-out: AUC0-24",0.83 µg·h/mL
same,AUC(0-t),"25 mg, 25 mg, 1 per week, Day 1, read-out: AUC0-48",0.894 µg·h/mL
same,Cmax,[1],0.0991 µg/mL
same,half-life,[1],5.8 h
same,Tmax,[1],6 h
same,AUC(0-t),"50 mg, 50 mg, 1 per week, Day 1, read-out: AUC0-24",1.03 µg·h/mL
same,AUC(0-t),"50 mg, 50 mg, 1 per week, Day 1, read-out: AUC0-48",1.31 µg·h/mL
same,Cmax,[2],0.109 µg/mL
same,half-life,[2],13.2 h
same,Tmax,[2],1.5 h
same,AUC(0-t),"100 mg, 100 mg, 1 per week, Day 1, read-out: AUC0-24",1.78 µg·h/mL
same,AUC(0-t),"100 mg, 100 mg, 1 per week, Day 1, read-out: AUC0-48",2.34 µg·h/mL
same,Cmax,[3],0.252 µg/mL
same,half-life,[3],27.6 h
same,Tmax,[3],2 h
same,AUC(0-t),"150 mg, 150 mg, 1 per week, Day 1, read-out: AUC0-24",2.69 µg·h/mL
same,AUC(0-t),"150 mg, 150 mg, 1 per week, Day 1, read-out: AUC0-48",3.28 µg·h/mL
same,Cmax,[4],0.226 µg/mL
same,half-life,[4],11.5 h
same,Tmax,[4],6 h
same,AUC(0-t),"150 mg, 150 mg, 5 per week, Day 1, read-out: AUC0-24",2.15 µg·h/mL
same,Cmax,[5],0.227 µg/mL
same,Tmax,[5],2 h
same,AUC(0-t),"150 mg, 150 mg, 5 per week, Day 15, read-out: AUC0-24",3.72 µg·h/mL
same,Cmax,[6],0.347 µg/mL
same,Tmax,[6],1 h
same,AUC(0-t),"200 mg, 200 mg, 5 per week, Day 1, read-out: AUC0-24",2.75 µg·h/mL
same,Cmax,[7],0.337 µg/mL
same,half-life,[7],8.5 h
same,Tmax,[7],4 h
same,AUC(0-t),"200 mg, 200 mg, 5 per week, Day 15, read-out: AUC0-24",4.03 µg·h/mL
same,Cmax,[8],0.44 µg/mL
same,Tmax,[8],2 h
same,AUC(0-t),"225 mg, 225 mg, 1 per week, Day 1, read-out: AUC0-24",3.43 µg·h/mL
same,AUC(0-t),"225 mg, 225 mg, 1 per week, Day 1, read-out: AUC0-48",4.31 µg·h/mL
same,Cmax,[9],0.364 µg/mL
same,half-life,[9],12 h
same,Tmax,[9],4 h
same,AUC(0-t),"250 mg, 250 mg, 3 per week, Day 1, read-out: AUC0-24",3.98 µg·h/mL
same,AUC(0-t),"250 mg, 250 mg, 3 per week, Day 1, read-out: AUC0-48",5.21 µg·h/mL
same,Cmax,[10],0.394 µg/mL
same,half-life,[10],14 h
same,Tmax,[10],2 h
same,AUC(0-t),"250 mg, 250 mg, 3 per week, Day 15, read-out: AUC0-24",4.81 µg·h/mL
same,AUC(0-t),"250 mg, 250 mg, 3 per week, Day 15, read-out: AUC0-48",7.77 µg·h/mL
same,Cmax,[11],0.403 µg/mL
same,Tmax,[11],2 h
same,AUC(0-t),"300 mg, 300 mg, 1 per week, Day 1, read-out: AUC0-24",4.68 µg·h/mL
same,AUC(0-t),"300 mg, 300 mg, 1 per week, Day 1, read-out: AUC0-48",6.14 µg·h/mL
same,Cmax,[12],0.318 µg/mL
same,half-life,[12],14.6 h
